Test results from US7999128B2, “Hydroxybenzophenone derivatives” (BASF SE, priority 2006, dated 2011).

Legend:
[1] = Solubility in Cyclomethicone; format: physicochemical; conditions: at RT
[2] = UV absorption (λmax, E 1/1); format: physicochemical; conditions: for E 1/1: at λmax

SMILES | solubility in Cyclomethicone [1] [%] | λmax [2] [nm] | E 1/1 [2]
CCN(CC)c1ccc(C(=O)c2ccccc2C(=O)OCCC[Si](C)(C)C)c(O)c1 [Example A1] | 1.8 | 350 | 822
CCN(CC)c1ccc(C(=O)c2ccccc2C(=O)OCCOC(=O)C(C)C[Si](C)(O[Si](C)(C)C)O[Si](C)(C)C)c(O)c1 (centres unmarked) [Example A2] | > 20 | 350 | 571
CCN(CC)c1ccc(C(=O)c2ccccc2C(=O)OCCOC(=O)C(C)C[Si](C)(O[Si](C)(C)C)O[Si](C)(C)C)c(O)c1 (centres unmarked) [Example A3] | – | 357 | 606
